From US7714134B2, “Compounds and use of tetrahydropyridothiophenes” (4SC AG, priority 2004, dated 2010)

Tests used:
[1] = test system: RKO (RKOp27) human colon adenocarcinoma cells; test: Alamar Blue cell viability assay, anti-proliferative/cytotoxic activity, RKO p27 uninduced; format: cell-based; details: RKOp27, 72 h, proliferating cells, absence of the inducer Ponasterone A, 72 hours incubation
Procedure: The anti-proliferative/cytotoxic activity of the compounds described herein, can be tested on subdlones of RKO (RKOp27) human colon adenocarcinoma cells (Schmidt et al., Oncogene 19, 2423-2429; 2000) using the Alamar Blue cell viability assay (described in O'Brien et al. Eur J Biochem 267, 5421-5426, 2000). The compounds are dissolved as 20 mM solutions in dimethylsulfoxide (DMSO) and subsequently diluted in semi-logarithmic steps. DMSO dilutions are further diluted 1:100 into Dulbecco's modified Eagle's medium (DMEM) containing 10% fetal calf serum to a final concentration twice as much as the final concentration in the test. RKO subclones are seeded into 96 well flat bottom plates at a density of 4000 cells per well in a volume of 50 µl per well. 24 hours after seeding the 50 μl each of the compound dilutions in DMEM medium are added into each well of the 96 Well plate. Each compound dilution is tested as quadruplicates. Wells containing untreated control cells are filled with 50 μl DMEM medium containing 1% DMSO. The cells are then incubated with the substances for 72 hours at 37° C. in a humidified atmosphere containing 5% carbon dioxide. To determine the viability of the cells, 10 μl of an Alamar Blue solution (Biosource) are added and the fluorescence is measured at an extinction of 544 nm and an emission of 590 nm. For the calculation of the cell viability the emission value from untreated cells is set as 100% viability and the emission rates of treated cells are set in relation to the values of untreated cells. Viabilities are expressed as % values.
The corresponding IC50 values of the compounds for anti-proliferative/cytotoxic activity are determined from the concentration-effect curves.
Representative IC50 values for anti-proliferation/cytotoxicity determined for the compounds mentioned and numbered as Examples in the examples above follow from the following table A (1st column), in which the numbers of the compound correspond to the numbers of the examples. Any or all of the compounds according to the present invention which are listed in the Table A, as well as their salts, are to be mentioned as a particular interesting subject of the present invention.

[2] = test system: RKO colon adenocarcinoma cells (RKOp27) arrested by expression of ectopic p27Kip1; test: Alamar Blue cell viability assay, cell cycle specific mode of action, RKO p27 induced (arrested by Ponasterone A-induced p27Kip1); format: cell-based; details: Homo sapiens, RKOp27, 72 h, cells arrested by p27Kip1 induced with 10 μM Ponasterone A, 72 hours incubation
Procedure: To determine the cell cycle specific mode of action, subdlones of RKO colon adenocarcinoma cells (RKOp27 or RKOp21 as described by Schmidt et al. in Oncogene 19, 2423-2429; 2000) are seeded into 96 well flat bottom plates at a density of 16000 cells per well in a volume of 50 μl per well in DMEM growth medium with 10% FCS containing 10 μM Ponasterone A. 24 hours after seeding the 50 μl each of the compound dilutions in DMEM medium are added into each well of the 96 Well plate. Each compound dilution is tested as quadruplicates. Wells containing untreated control cells are filled with 50 μl DMEM medium containing 1% DMSO. The cells are then incubated with the substances for 72 hours at 37° C. in a humidified atmosphere containing 5% carbon dioxide. To determine the viability of the cells, 10 μl of an Alamar Blue solution (Biosource) are added and the fluorescence was measured at an extinction of 544 nm and an emission of 590 nm. For the calculation of the cell viability the emission value from untreated cells is set as 100% viability and the emission rates of treated cells are set in relation to the values of untreated cells. Viabilities are expressed as % values. Viability is compared of proliferating cells grown in the absence of the inducer Ponasterone A, versus viability of cells arrested by the expression of ectopic p27Kip1 induced by Ponasterone A. The data of this experimental setting are summarized in table A (2nd column).

IC50 [2] [µM] | Compound | IC50 [1] [µM]
> 100 | COc1cccc(C(=O)Nc2sc3c(c2C#N)CCN(C(=O)OC(C)(C)C)C3)c1 [Compound 3, N-(6-tert.-Butyloxycarbonyl-3-cyano-4,5,6,7-tetrahvdro-thieno[2,3-c]pyridin-2-yl)-3-methoxybenzamide] | ≤ 2
> 60 | N#Cc1c(NC(=O)c2ccccc2)sc2c1CCN(C(=O)OCCc1ccccc1)C2 [Compound 65, 3-Cyano-2-[(1-phenyl-methanoyl)-amino]-4,7-dihydro-5H-thieno[2,3-c]pyridine-6-carboxylic acid phenethyl ester] | ≤ 3
> 60 | N#Cc1c(NC(=O)c2ccccc2)sc2c1CCN(C(=O)NCCc1ccncc1)C2 [Compound 80, 3-Cyano-2-[(1-phenyl-methanoyl)-amino]-4,7-dihydro-5H-thieno[2,3-c]pyridine-6-carboxylic acid (2-pyridin-4-yl-ethyl)-amide] | ≤ 3
> 60 | COCCOCCOC(=O)N1CCc2c(sc(NC(=O)c3ccccc3)c2C#N)C1 [Compound 75, 3-Cyano-2-[(1-phenyl-methanoyl)amino]-4,7-dihydro-5H-thieno[2,3-c]pyridine-6-carboxylic acid 2-(2-methoxy-ethoxy)-ethyl ester] | ≤ 3
> 100 | COC(=O)CCSC(=O)N1CCc2c(sc(NC(=O)c3ccccc3)c2C#N)C1 [Compound 102, 3-(1{3-Cyano-2-[(1-phenyl-methanoyl)-amino]-4,7-dihydro-5H-thieno[2,3-c]pyridin-6-yl}-methanoylsulfanyl)-propionic acid methyl ester] | ≤ 3
> 100 | N#Cc1c(NC(=O)c2ccccc2)sc2c1CCN(C(=O)CCCn1ccnc1)C2 [Compound 85, N-[3-Cyano-6-(4-imidazol-1-yl-butanoyl)-4,5,6,7-tetrahydro-thieno[2,3-c]pyridin-2-yl]-benzamide] | ≤ 3
> 100 | CCSC(=O)N1CCc2c(sc(NC(=O)c3ccccc3)c2C#N)C1 [Compound 29, N-(3-Cyano-7-(ethylthiocarbonyl)-4,5,6,7-tetrahvdro-thieno[2,3-c]pyridin-2-yl)-benzamide] | ≤ 2
> 60 | N#Cc1c(NC(=O)c2ccccc2)sc2c1CCN(C(=O)NCCc1c[nH]c3ccccc13)C2 [Compound 81, 3-Cyano-2-[(1-phenyl-methanoyl)-amino]-4,7-dihydro-5H-thieno[2,3-c]pyridine-6-carboxylic acid [2-(1H-indol-3-yl)-ethyl]-amide] | ≤ 3
> 60 | N#Cc1c(NC(=O)c2ccccc2)sc2c1CCN(S(=O)(=O)c1ccc(N3CCOCC3)nc1)C2 [Compound 77, N-[3-Cyano-6-(6-morpholin-4-yl-pyridine-3-sulfonyl)-4,5,6,7-tetrahydro-thieno[2,3-c]pyridin-2-yl]-benzamide] | ≤ 3
> 100 | CCOC(=O)N1CCc2c(sc(NC(=O)c3cccc(OC)c3)c2C#N)C1 [Compound 12, N-(6-Ethoxycarbonyl-3-cyano-4,5,6,7-tetrahydro-thieno[2,3-c]pyridin-2-yl)-3-methoxybenzamide] | ≤ 2
> 60 | CCOC(=O)N1CCc2c(sc(NC(=O)c3ccc(Cl)cc3)c2C#N)C1 [Compound 47, 2-{[1-(4-Chloro-phenyl)-methanoyl]-amino}-3-cyano-4,7-dihydro-5H-thieno[2,3-c]pyridin-6-carboxylic acid ethyl ester] | ≤ 3
> 100 | CCOCCCNC(=O)N1CCc2c(sc(NC(=O)c3ccccc3)c2C#N)C1 [Compound 100, 3-Cyano-2-[(1-phenyl-methanoyl)-amino]-4,7-dihydro-5H-hieno[2,3-c]pyridine-6-carboxylic acid (3-ethoxy-propyl)-amide] | ≤ 3
> 100 | N#Cc1c(NC(=O)c2ccccc2)sc2c1CCN(C(=O)NCCc1ccccn1)C2 [Compound 99, 3-Cyano-2-[(1-phenyl-methanoyl)-amino]-4,7-dihydro-5H-thieno[2,3-c]pyridine-6-carboxylic acid (2-pyridin-2-yl-ethyl)-amide] | ≤ 3
> 60 | COC(=O)N1CCc2c(sc(NC(=O)c3ccccc3)c2C#N)C1 [Compound 54, 3-Cyano-2-[(1-phenyl-methanoyl)-amino]-4,7-dihydro-5H-thieno[2,3-c]pyridine-6-carboxylic acid methyl ester] | ≤ 3
> 100 | CN(C)C(=O)CCC(=O)N1CCc2c(sc(NC(=O)c3ccccc3)c2C#N)C1 [Compound 83, N-[3-Cyano-6-(3-dimethylcarbamoyl-propanoyl)-4,5,6,7-tetrahydro-thieno[2,3-c]pyridin-2-yl]-benzamide] | ≤ 3
> 100 | CC(C)(C)OC(=O)N1CCc2c(sc(NC(=O)c3ccccc3)c2C#N)C1 [Compound 1, N-(6-tert.-Butyloxycarbonyl-3-cyano-4,5,6,7-tetrahydro-thieno[2,3-c]pyridin-2-yl)-benzamide] | ≤ 2
> 100 | COCCC(=O)N1CCc2c(sc(NC(=O)c3ccccc3)c2C#N)C1 [Compound 7, N-(3-Cyano-7-methoxyethylcarbonyl-4,5,6,7-tetrahydro-thien[2,3-c]pyridin-2-yl)-benzamide] | ≤ 2
> 100 | N#Cc1c(NC(=O)c2ccccc2)sc2c1CCN(C(=O)OCCn1ccnc1)C2 [Compound 95] | ≤ 3
> 100 | CCCCCCC(=O)N1CCc2c(sc(NC(=O)c3ccccc3)c2C#N)C1 [Compound 6] | ≤ 2
> 60 | CCCCOC(=O)N1CCc2c(sc(NC(=O)c3ccccc3)c2C#N)C1 [Compound 58, 3-Cyano-2-[(1-phenyl-methanoyl)-amino]-4,7-dihydro-5H-thieno[2,3-c]pyridine-6-carboxylic acid butyl ester] | ≤ 3
> 60 | CC1(C)OCC(COC(=O)N2CCc3c(sc(NC(=O)c4ccccc4)c3C#N)C2)O1 (stereo not drawn) [Compound 74, 3-Cyano-2-[(1-phenyl-methanoyl)-amino]-4,7-dihydro-5H-thieno[2,3-c]pyridine-6-carboxylic acid 2,2-dimethyl-[1,3]dioxolan-4-ylmethyl ester] | ≤ 3
> 60 | CCOC(=O)N1CCc2c(sc(NC(=O)c3ccccc3C)c2C#N)C1 [Compound 52, 3-Cyano-2-[(1-o-tolyl-methanoyl)-amino]-4,7-dihydro-5H-thieno[2,3-c]pyridine-6-carboxylic acid ethyl ester] | ≤ 3
> 100 | N#Cc1c(NC(=O)c2ccccc2)sc2c1CCN(C(=O)CCC(N)=O)C2 [Compound 8] | ≤ 2
> 60 | N#Cc1c(NC(=O)c2ccccc2)sc2c1CCN(C(=O)CCCc1c[nH]c3ccccc13)C2 [Compound 37, N-[3-Cyano-6-(4-1H-indol-3-yl-butanoyl)-4,5,6,7-tetrahydro-thieno[2,3-c]pyridin-2-yl]-benzamide] | ≤ 3
> 100 | Cc1ncsc1CCOC(=O)N1CCc2c(sc(NC(=O)c3ccccc3)c2C#N)C1 [Compound 17] | ≤ 2
> 60 | CCOC(=O)N1CCc2c(sc(NC(=O)c3cccc(Cl)c3)c2C#N)C1 [Compound 48, 2-{[1-(3-Chloro-phenyl)-methanoyl]-amino}-3-cyano-4,7-dihydro-5H-thieno[2,3-c]pyridine-6-carboxylic acid ethyl ester] | ≤ 3
> 100 | CC(=O)NCCOC(=O)N1CCc2c(sc(NC(=O)c3ccccc3)c2C#N)C1 [Compound 94, 3-Cyano-2-[(1-phenyl-methanoyl)-amino]4,7-dihydro-5H-thieno[2,3-c]pyridine-6-carboxylic acid 2-acetylamino-ethyl ester] | ≤ 3
